According to patent publication US8470351B2, “Embedding antibiotic compounds in solid polymers” (The Research Foundation of the City University of New York, priority 2007, dated 2013):

What was measured:
[1] = Antimicrobial property of PVC surface with embedded agent; settings: agent added to PVC heated to 350° F., 10 g/square meter of finished surface; after pressing and cooling
Procedure: To a preparation of PVC prepared for finishing and heated to 350° F. is added the agent bis-1′,3′-(1-hexadecyl)-1,4-diazoniabicyclo[2.2.2]octane-2′-propanol tetrachloride in an amount of 10 g/square meter of finished surface. After pressing and cooling samples the surface is antimicrobial.

[2] = test system: Escherichia coli; experiment: Antimicrobial assessment of embedded polyester fabric on mineral salts agar; assay type: cell-based; settings: agent embedded in three polyester fabrics ("144×90", "Spandex" 5% lycra with polyester, "Darlington"), incubated at 28° C. for 28 days
Procedure: (§1) Three types of polyester fabric are embedded with bis-1′,3′-(1-hexadecyl)-1,4-diazoniabicyclo[2.2.2]octane-2′-propanol tetrachloride. Three polyester samples supplied by Gar are tested—a) “144×90”, b) “Spandex” which is 5% lycra with polyester, and c) “Darlington.” Each fabric sample is placed onto a mineral salts agar medium and then inoculated with either Staphylococus aureus or Escherichia coli. The inoculated specimen is then incubated at 28° C. for 28 days, in order to allow adequate time for bacterial growth. The fabric samples show a complete kill of both Staphylococus aureus and Escherichia coli.

[3] = test system: Staphylococus aureus; experiment: as above; assay type: cell-based; settings: agent embedded in three polyester fabrics ("144×90", "Spandex" 5% lycra with polyester, "Darlington"), incubated at 28° C. for 28 days
Procedure: as §1

CCCCCCCCCCCCCCCC[N+]12CC[N+](CC(O)C[N+]34CC[N+](CCCCCCCCCCCCCCCC)(CC3)CC4)(CC1)CC2.[Cl-].[Cl-].[Cl-].[Cl-] (stereo not drawn) [bis-1′,3′-(1-hexadecyl)-1,4-diazoniabicyclo[2.2.2]octane-2′-propanol tetrachloride]
antimicrobial property of the surface [1]: antimicrobial
kill of Escherichia coli on embedded fabric samples [2]: complete kill
kill of Staphylococus aureus on embedded fabric samples [3]: complete kill
